In patent publication US20130102631A1, “NOVEL MICROBIOCIDAL DIOXIME ETHER DERIVATIVES” (SYNGENTA CROP PROTECTION LLC, priority 2010, published 2013):

What was measured:
[1] = tested on: Gaeumannomyces graminis; assay: Gaeumannomyces graminis / liquid culture (take-all of cereals); format: cell-based; details: at ≦200 ppm, liquid culture PDB, inhibition of growth photometrically 4-5 days after application, read-out: control of Gaeumannomyces graminis
Description: Gaeumannomyces graminis/Liquid Culture (Take-All of Cereals): Mycelial fragments of the fungus from cryogenic storage were directly mixed into nutrient broth (PDB potato dextrose broth). After placing a DMSO solution of test compound into a 96-well microtiter plate, the nutrient broth containing the fungal spores is added. The test plates were incubated at 24° C. and the inhibition of growth was determined photometrically 4-5 days after application. […]-2.509; 5.561; 2.561; P.57; 2.513; 2.559; 2.558; 2.557; 2.556; 2.555; 2.374; 2.553; 2.552; 2.551 (fraction B); 2.551 (fraction A); 2.539; 2.533; 2.528; 2.526; 2.525 (fraction B); 2.525 (fraction A); 2.524; 2.523; 2.521; 2.520; 2.519; 2.510; 2.518; 2.516; 2.514; E/E-5.167; E/E-3.002; 2.512; E/E-2.508

[2] = tested on: Mycosphaerella arachidis (Cercospora arachidicola); assay: Mycosphaerella arachidis (Cercospora arachidicola) / liquid culture (early leaf spot); format: cell-based; details: at ≦200 ppm, liquid culture PDB, inhibition of growth photometrically 4-5 days after application, read-out: control of Mycosphaerella arachidis
Description: Mycosphaerella arachidis (Cercospora arachidicola)/Liquid Culture (Early Leaf Spot): Conidia of the fungus from cryogenic storage were directly mixed into nutrient broth (PDB potato dextrose broth). After placing a DMSO solution of test compound into a 96-well microtiter plate, the nutrient broth containing the fungal spores was added. The test plates are incubated at 24° C. and the inhibition of growth was determined photometrically 4-5 days after application. […]-2.509; 5.561; 2.561; P.57; 2.513; 2.559; 2.558; 2.557; 2.556; 2.555; 2.374; 2.553; 2.552; 2.551 (fraction B); 2.551 (fraction A); 2.544; 2.541; 2.539; 2.537; 2.536; 2.533; 2.532; 2.531; 2.530; 2.528; 2.526; 2.525 (fraction B); 2.525 (fraction A); 2.524; 2.520; 2.519; 2.510; 2.518; 2.517; 2.516; 2.514; […].002; 2.512; 2.511; 2.514

[3] = tested on: Mycosphaerella graminicola (Septoria tritici); assay: Mycosphaerella graminicola (Septoria tritici) / liquid culture (Septoria blotch); format: cell-based; details: Zymoseptoria tritici; at ≦200 ppm, liquid culture PDB, inhibition of growth photometrically 4-5 days after application; read-out: control of Mycosphaerella graminicola
[4] = tested on: Monographella nivalis (Microdochium nivale); assay: Monographella nivalis (Microdochium nivale) / liquid culture (foot rot cereals); format: cell-based; details: at ≦200 ppm, liquid culture PDB, inhibition of growth photometrically 4-5 days after application, read-out: control of Monographella nivalis
Description: Monographella nivalis (Microdochium nivale)/Liquid Culture (Foot Rot Cereals): Conidia of the fungus from cryogenic storage were directly mixed into nutrient broth (PDB potato dextrose broth). After placing a DMSO solution of test compound into a 96-well microtiter plate, the nutrient broth containing the fungal spores was added. The test plates were incubated at 24° C. and the inhibition of growth was determined photometrically 4-5 days after application. […].57; 2.513; 2.559; 2.558; 2.556; 2.555; 2.374; 2.553; 2.551 (fraction B); 2.551 (fraction A); 2.548; 2.544; 2.542; 2.541; 2.539; 2.536; 2.535; 2.533; 2.530; 2.528; 2.526; 2.525 (fraction B); 2.525 (fraction A); 2.524; 2.519; 2.518; 2.516; 2.514; E/E-5.167; 2.512; 2.514

[5] = tested on: Blumeria graminis f. sp. tritici (Erysiphe graminis f. sp. tritici); assay: Blumeria graminis f. sp. tritici / wheat / leaf disc preventative (powdery mildew on wheat); format: in vivo; details: foliar, wheat leaf segments cv. Kanzler, inoculated 1 day after application, assessed 6-8 days after application
Description: Blumeria graminis f. sp. tritici (Erysiphe graminis f. sp. tritici)/Wheat/Leaf Disc Preventative (Powdery Mildew on Wheat):
Wheat leaf segments cv. Kanzler were placed on agar in a 24-well plate and sprayed with the formulated test compound diluted in water at an application rate of 200 ppm. The leaf disks were inoculated by shaking powdery mildew infected plants above the test plates 1 day after application. The inoculated leaf disks were incubated at 20° C. and 60% relative humidity under a light regime of 24 h darkness followed by 12 h/12 h (dark/light) in a climate chamber and the activity of a compound was assessed as percent disease control compared to untreated when an appropriate level of disease damage appears on untreated check leaf segments (6-8 days after application). The following compounds gave at least 80% control of Blumeria graminis: E/E-2.168, E/E-2.474, E/E-2.002; 5.561; 2.561; E/E-2.208; 2.513; 2.559; 2.557; 2.556; 2.555; 2.374; 2.552; 2.537; 2.533; 2.530; 2.528; 2.526; 2.519; 2.510; 2.516; 2.514; E/E-5.167; E/E-3.002; 2.512; 2.511

[6] = tested on: Glomerella lagenarium; assay: Glomerella lagenarium (Colletotrichum lagenarium) / liquid culture (anthracnose); format: cell-based; details: Colletotrichum orbiculare; at ≦200 ppm, liquid culture PDB, inhibition of growth photometrically 3-4 days after application; read-out: control of Glomerella lagenarium
Description: Glomerella lagenarium (Colletotfichum lagenarium)/Liquid Culture (Anthracnose): Conidia of the fungus from cryogenic storage were directly mixed into nutrient broth (PDB potato dextrose broth). After placing a DMSO solution of test compound into a 96-well microtiter, the nutrient broth containing the fungal spores was added. The test plates were incubated at 24° C. and the inhibition of growth is measured photometrically 3-4 days after application. […]-2.509; 5.561; 2.561; E/E-2.208; P.57; 2.513; 2.559; 2.556; 2.555; 2.374; 2.552; 2.548; 2.544; 2.541; 2.540; 2.539; 2.537; 2.536; 2.533; 2.531; 2.530; 2.528; 2.526; 2.519; 2.510; 2.516; 2.514; E/E-5.167; E/E-3.002; 2.512; 2.514; Z/E-2.474

[7] = tested on: Phaeosphaeria nodorum (Septoria nodorum); assay: Phaeosphaeria nodorum (Septoria nodorum) / wheat / leaf disc preventative (glume blotch); format: in vivo; details: Parastagonospora nodorum, foliar, wheat leaf segments cv Kanzler, inoculated 2 days after application, assessed 5-7 days after application
Description: Phaeosphaeria nodorum (Septoria nodorum)/Wheat/Leaf Disc Preventative (Glume Blotch): Wheat leaf segments cv Kanzler were placed on agar in a 24-well plate and sprayed with formulated test compound diluted in water at an application rate of 200 ppm. The leaf disks are inoculated with a spore suspension of the fungus 2 days after application. The inoculated test leaf disks are incubated at 20° C. and 75% relative humidity under a light regime of 12/12 h (light/dark) in a climate cabinet and the activity of a compound is assessed as percent disease control compared to untreated when an appropriate level of disease damage appears in untreated check leaf disks (5-7 days after application). […]-2.508; 5.561; 2.561; E/E-2.208; P.57; 2.513; 2.559; 2.558; 2.557; 2.556; 2.555; 2.374; 2.544; 2.541; 2.539; 2.537; 2.536; 2.535; 2.533; 2.530; 2.526; 2.519; 2.510; 2.516; 2.514; E/E-5.167; E/E-3.002; 2.512

SMILES	inhibition of growth at up to 200 µg/mL [1] [%]	inhibition of growth at up to 200 µg/mL [2] [%]	inhibition of growth at up to 200 µg/mL [3] [%]	inhibition of growth at up to 200 µg/mL [4] [%]	pest or weed control at 200 ppm [5] [%]	inhibition of growth at up to 200 µg/mL [6] [%]	pest or weed control at 200 ppm [7] [%]
C/C(=N\OCC(C)(C)CO/N=C1\CCCc2ccc(C)nc21)c1ncc(C(F)(F)F)cc1Cl (single isomer, unassigned) [2.551 (fraction B)]	≥ 80	≥ 80	≥ 80	≥ 80	–	–	–
Cc1ccc2c(n1)/C(=N/OCC(C)(C)CON=C(c1ccccn1)c1ccccn1)CCC2 [Compound 2.511]	–	≥ 80	–	–	≥ 80	–	–
COC(=O)C/C(=N/OCC(C)(C)CO/N=C1\CCCc2ccc(C)nc21)c1ncc(Cl)cc1F [Compound 2.518]	≥ 80	≥ 80	–	≥ 80	–	–	–
Cc1ccc2c(n1)/C(=N/OCC(C)(C)CO/N=C(/c1ccccn1)c1ncc(C(F)(F)F)cc1Cl)CCC2 [Compound 2.520]	≥ 80	≥ 80	–	–	–	–	–
Cc1ccc2c(n1)/C(=N/OCC(C)(C)CO/N=C(/c1ccccc1)c1ncc(C(F)(F)F)cc1Cl)CCC2 [Compound 2.521]	≥ 80	–	–	–	–	–	–
CCOC(=O)c1ccc(/C(C)=N\OCC(C)(C)CO/N=C2\CCCc3ccc(C)nc32)nc1C(F)(F)F [Compound 2.523]	≥ 80	–	–	–	–	–	–
CC/C(=N/OCC(C)(C)CO/N=C1\CCCc2ccc(C)nc21)c1ccc(C(F)(F)F)cn1 [Compound 2.524]	≥ 80	≥ 80	–	≥ 80	–	–	–
C/C(=N\OCC(C)(C)CO/N=C1\CCCc2ccc(C)nc21)c1cc(C#N)ccn1 [Compound 2.531]	–	≥ 80	≥ 80	–	–	≥ 80	–
Cc1ccc2c(n1)/C(=N/OCC(C)(C)CO/N=C(\c1ccc(Cl)cc1)c1ccccn1)CCC2 [Compound 2.532]	–	≥ 80	≥ 80	–	–	–	–
CSc1nc(/C=N/OCC(C)(C)CO/N=C2\CCCc3ccc(C)nc32)ccc1C#N [Compound 2.535]	–	–	≥ 80	≥ 80	–	–	≥ 80
C/C(=N\OCC(C)(C)CO/N=C1\CCCc2ccc(C)nc21)c1cccc(C#N)n1 [Compound 2.536]	–	≥ 80	≥ 80	≥ 80	–	≥ 80	≥ 80
Cc1ccc2c(n1)/C(=N/OCC(C)(C)CO/N=C(/c1cccc(Br)n1)c1ccccc1C)CCC2 [Compound 2.539]	≥ 80	≥ 80	≥ 80	≥ 80	–	≥ 80	≥ 80
COC(=O)c1ccc(C(F)(F)F)nc1/C(C)=N/OCC(C)(C)CO/N=C1\CCCc2ccc(C)nc21 [Compound 2.540]	–	–	≥ 80	–	–	≥ 80	–
C/C(=N\OCC(C)(C)CO/N=C1\CCCc2ccc(C)nc21)c1cc(C(C)(C)C)ccn1 [Compound 2.541]	–	≥ 80	≥ 80	≥ 80	–	≥ 80	≥ 80
Cc1ccc2c(n1)/C(=N/OCC(C)(C)CO/N=C(/c1ncc(Cl)cc1Cl)C(C)C)CCC2 [Compound 2.542]	–	–	≥ 80	≥ 80	–	–	–
Cc1ccc2c(n1)/C(=N/OCC(C)(C)CO/N=C(\c1ncc(Cl)cc1F)C(C)Cl)CCC2 (stereo not drawn) [Compound 2.545]	–	–	≥ 80	–	–	–	–
C/C(=N\OCC(C)(C)CO/N=C1\CCCc2ccc(C)nc21)c1ncc(Cl)cc1O [Compound 2.548]	–	–	≥ 80	≥ 80	–	≥ 80	–
CC/C(=N\OCC(C)(C)CO/N=C1\CCCc2ccc(C)nc21)c1ncc(Cl)cc1Cl [Compound 2.549]	–	–	≥ 80	–	–	–	–
Cc1cc(C)nc(C(=NOCCCO/N=C2\CCCc3ccc(C)nc32)c2cc(C)cc(C)n2)c1 [Compound 2.557]	≥ 80	≥ 80	–	–	≥ 80	–	≥ 80
C/C(=N\OCC(C)(C)CO/N=C1\CCCc2ccc(C)nc21)c1ncc(Cl)cc1F [E/E-2.509]	≥ 80	≥ 80	≥ 80	≥ 80	–	≥ 80	–
Cc1cccc(/C(=N\OCC(C)(C)CO/N=C2\CCCc3ccc(C)nc32)c2ccccc2)n1 [Z/E-2.474]	–	≥ 80	–	–	–	≥ 80	–
